Experimental findings from patent US20230303512A1, “MODULATORS OF MYB-MEDIATED TRANSCRIPTION AND USES THEREOF” (Massachusetts Institute of Technology, priority 2020, published 2023) are described below.

Where only a bound is given, the exact number is not on record here.

One assay deals with Molt4-5×MRE-FLuc cells. The assay is described as follows: Cell-Titer Glo viability assay, Molt4-5×MRE-FLuc cells. In kind it is cell-based. Conditions: 4 hours; read-out: IC50 Cell Titer Glo Molt4-5xMRE-FLuc Viability. On the procedure:
Molt4-5×MRE-FLuc cells were plated at a density of 10000 cells/well in 25 uL of media in a 384-well plate. The following day, compound analogs were added using a Tecan transfer tool. The plates were incubated for 4 hours, and then the viability was measured using promega Cell-titer glo assay according to the manufacturer's protocols.

The test system of another assay is endogenous Myb protein. Briefly: Molt4-5×MRE-FLuc reporter assay. In kind it is cell-based. Conditions: 4 hours, One-Glo, normalized to DMSO; read-out: IC50 Molt4-5xMRE-FLuc Reporter. On the procedure:
Molt4 cells were stably transduced with a lentiviral construct encoding a 5×MRE Myb-responsive promoter driving firefly luciferase expression. The reporter output is controlled by the levels/activity of endogenous Myb protein in the Molt4 cell line.
Molt4-5×MRE-FLuc cells were plated at a density of 10000 cells/well in 25 uL of media in a 384-well plate. Compound analogs were added using a Tecan transfer tool to the wells. The plate was incubated for 4 hours, and then firefly luciferase signal measured using promega One-Glo luciferase assay system according to the manufacturer's protocols. The signal was normalized to control wells which were treated with DMSO vehicle.
In general terms: Reporter assays use an easily measured gene product as a stand-in for the process of interest.

What is called IC50 is the concentration that inhibits the measured activity by half. For the compound `Cc1cc(N2CCC(N(Cc3cccc(N4CCCC4)c3)C(=O)NC(C)C)CC2)nc(N)n1` [KI-TM1-003, 1-(1-(2-Amino-6-methylpyrimidin-4-yl)piperidin-4-yl)-3-isopropyl-1-(3-(pyrrolidin-1-yl)benzyl)urea], the IC50 with Molt4-5×MRE-FLuc cells and in the assay on endogenous Myb protein was greater than 40 µM each time.

As for `CC(=O)N(Cc1cccc(N2CCCC2)c1)C1CCN(c2cc(C)nc(N)n2)CC1` [KI-TM1-004, N-(1-(2-amino-6-methylpyrimidin-4-yl)piperidin-4-yl)-N-(3-(pyrrolidin-1-yl)benzyl)acetamide], the IC50 with Molt4-5×MRE-FLuc cells and in the assay on endogenous Myb protein was greater than 40 µM each time.

For `Cc1cc(N2CCC(NCc3ccccc3N3CCCC3)CC2)nc(N)n1` [KI-TM1-006, 4-methyl-6-(4-((2-(pyrrolidin-1-yl)benzyl)amino)piperidin-1-yl)pyrimidin-2-amine], the IC50 in the assay with Molt4-5×MRE-FLuc cells and with endogenous Myb protein was greater than 40 µM in each case.

Turning to `Cc1cc(N2CCC(NCc3ccc(N4CCCC4)cc3)CC2)nc(N)n1` [KI-TM1-007, 4-methyl-6-(4-((4-(pyrrolidin-1-yl)benzyl)amino)piperidin-1-yl)pyrimidin-2-amine], the IC50 with Molt4-5×MRE-FLuc cells and with endogenous Myb protein was greater than 40 µM in each case.

For `Cc1cc(N2CCC(NC(=O)c3cccc(N4CCCC4)c3)CC2)nc(N)n1` [KI-TM1-008, N-(1-(2-amino-6-methylpyrimidin-4-yl)piperidin-4-yl)-3-(pyrrolidin-1-yl)benzamide], the IC50 in the assay with Molt4-5×MRE-FLuc cells and with endogenous Myb protein was greater than 40 µM in each case.

In the case of `Cc1cc(N2CCC(NCc3cccc(N4CCCCC4)c3)CC2)nc(N)n1` [KI-TM1-009, 4-methyl-6-(4-((3-(piperidin-1-yl)benzyl)amino)piperidin-1-yl)pyrimidin-2-amine], the IC50 is greater than 40 µM in the assay on Molt4-5×MRE-FLuc cells and 23.2 µM with endogenous Myb protein.

Take `Cc1cc(N2CCC(NCc3cccc(-n4cccc4)c3)CC2)nc(N)n1` [KI-TM1-010, 4-(4-((3-(1H-pyrrol-1-yl)benzyl)amino)piperidin-1-yl)-6-methylpyrimidin-2-amine]: the IC50 is greater than 40 µM in the assay with Molt4-5×MRE-FLuc cells and 21.2 µM in the assay with endogenous Myb protein.

Take `Cc1cc(N2CCC(NCc3cccc(N(C)C)c3)CC2)nc(N)n1` [KI-TM1-011, 4-(4-((3-(dimethylamino)benzyl)amino)piperidin-1-yl)-6-methylpyrimidin-2-amine]: the IC50 in the assay with Molt4-5×MRE-FLuc cells and in the assay with endogenous Myb protein was greater than 40 µM throughout.

As to `COc1cccc(CNC2CCN(c3cc(C)nc(N)n3)CC2)c1` [KI-TM1-012, 4-(4-((3-methoxybenzyl)amino)piperidin-1-yl)-6-methylpyrimidin-2-amine], the IC50 in the assay on Molt4-5×MRE-FLuc cells and in the assay on endogenous Myb protein was greater than 40 µM each time.

Consider `Cc1cc(N2CCC(NCc3cccc(-n4ccnc4)c3)CC2)nc(N)n1` [KI-TM1-014, 4-(4-((3-(1H-imidazol-1-yl)benzyl)amino)piperidin-1-yl)-6-methylpyrimidin-2-amine], for which the IC50 in the assay with Molt4-5×MRE-FLuc cells and with endogenous Myb protein was greater than 40 µM throughout.

On to `Cc1cc(N2CCC[C@@H](NCc3cccc(N4CCCC4)c3)C2)nc(N)n1` [KI-TM1-016R, (R)-4-Methyl-6-(3-((3-(pyrrolidin-1-yl)benzyl)amino)piperidin-1-yl)pyrimidin-2-amine], for which the IC50 in the assay on Molt4-5×MRE-FLuc cells and in the assay on endogenous Myb protein was greater than 40 µM throughout.

On to `Cc1cc(N2CCC[C@H](NCc3cccc(N4CCCC4)c3)C2)nc(N)n1` [KI-TM1-016S, (S)-4-Methyl-6-(3-((3-(pyrrolidin-1-yl)benzyl)amino)piperidin-1-yl)pyrimidin-2-amine], for which the IC50 in the assay on Molt4-5×MRE-FLuc cells is greater than 40 µM; with endogenous Myb protein, 22.3 µM.

With `Cc1cc(NCCCNCc2cccc(N3CCCC3)c2)nc(N)n1` [KI-TM1-017, 6-Methyl-N^4-(3-((3-(pyrrolidin-1-yl)benzyl)amino)propyl)pyrimidine-2,4-diamine], the IC50 in the assay with Molt4-5×MRE-FLuc cells and with endogenous Myb protein was greater than 40 µM in each case.

On to `Cc1cc(N2CCC(NCc3cccc(N4CCCC4)c3)CC2)ncn1` [KI-TM1-019, 1-(6-Methylpyrimidin-4-yl)-N-(3-(pyrrolidin-1-yl)benzyl)piperidin-4-amine], for which the IC50 in the assay on Molt4-5×MRE-FLuc cells was greater than 40 µM; in the assay with endogenous Myb protein, 22.1 µM.

On to `Cc1cc(N2CCC(NCc3cccc(C(C)(C)C)c3)CC2)nc(N)n1` [KI-TM1-026, 4-(4-((3-(tert-Butyl)benzyl)amino)piperidin-1-yl)-6-methylpyrimidin-2-amine], for which the IC50 in the assay with Molt4-5×MRE-FLuc cells and in the assay on endogenous Myb protein was greater than 40 µM throughout.

Take `CCN(CC)c1ccc(CNC2CCN(c3cc(C)nc(N)n3)CC2)cc1` [KI-TM1-027, 4-(4-((4-(Diethylamino)benzyl)amino)piperidin-1-yl)-6-methylpyrimidin-2-amine]: the IC50 in the assay with Molt4-5×MRE-FLuc cells and with endogenous Myb protein was greater than 40 µM throughout.

As to `Cc1cc(N2CCC(NCc3cccc(CN4CCCC4)c3)CC2)nc(N)n1` [KI-TM1-028, 4-Methyl-6-(4-((3-(pyrrolidin-1-ylmethyl)benzyl)amino)piperidin-1-yl)pyrimidin-2-amine], the IC50 in the assay on Molt4-5×MRE-FLuc cells and in the assay on endogenous Myb protein was greater than 40 µM in each case.

`C#CCCC1(CCN(Cc2cccc(N3CCCC3)c2)C2CCN(c3cc(C)nc(N)n3)CC2)N=N1` [KI-TM1-030, 4-(4-((2-(3-(But-3-yn-1-yl)-3H-diazirin-3-yl)ethyl)(3-(pyrrolidin-1-yl)benzyl)amino)-piperidin-1-yl)-6-methylpyrimidin-2-amine]: the values for the IC50 in the assay with Molt4-5×MRE-FLuc cells and with endogenous Myb protein were greater than 40 µM and 19.8 µM, respectively.

Turning to `Cc1cc(N2CCC(N(Cc3cccc(N4CCCC4)c3)C(=O)C=COCCOCCOCCN)CC2)nc(N)n1` [KI-TM1-031, N-(1-(2-Amino-6-methylpyrimidin-4-yl)piperidin-4-yl)-3-(2-(2-(2-aminoethoxy)ethoxy)-ethoxy)-N-(3-(pyrrolidin-1-yl)benzyl)propenamide], the IC50 in the assay with Molt4-5×MRE-FLuc cells and with endogenous Myb protein was greater than 40 µM each time.

Turning to `Cc1cc(N2CCCC(N(Cc3cccc(N4CCCC4)c3)C(=O)C=COCCOCCOCCN)C2)nc(N)n1` (stereo not drawn) [KI-TM1-032, N-(1-(2-Amino-6-methylpyrimidin-4-yl)piperidin-3-yl)-3-(2-(2-(2-aminoethoxy)ethoxy)-ethoxy)-N-(3-(pyrrolidin-1-yl)benzyl)propenamide], the IC50 with Molt4-5×MRE-FLuc cells and in the assay with endogenous Myb protein was greater than 40 µM throughout.

Turning to `Cc1cc(N2CCC(NCc3cccc(N4CCCC4)c3)CC2)nc(Cl)n1` [KI-TM1-033, 1-(2-Chloro-6-methylpyrimidin-4-yl)-N-(3-(pyrrolidin-1-yl)benzyl)piperidin-4-amine], the IC50 with Molt4-5×MRE-FLuc cells was greater than 40 µM; in the assay with endogenous Myb protein, 23.5 µM.

Regarding `CCCNC(=O)N(Cc1cccc(N2CCCC2)c1)C1CCN(c2cc(C)nc(N)n2)CC1` [KI-TM1-034, 1-(1-(2-Amino-6-methylpyrimidin-4-yl)piperidin-4-yl)-3-propyl-1-(3-(pyrrolidin-1-yl)benzyl)urea], the IC50 in the assay on Molt4-5×MRE-FLuc cells and with endogenous Myb protein was greater than 40 µM throughout.

`Cc1cnc(N)nc1N1CCC(NCc2cccc(N3CCCC3)c2)CC1` [KI-TM1-036, 5-Methyl-4-(4-((3-(pyrrolidin-1-yl)benzyl)amino)piperidin-1-yl)pyrimidin-2-amine]: the IC50 in the assay on Molt4-5×MRE-FLuc cells is greater than 40 µM; with endogenous Myb protein, 24.9 µM.

Turning to `Cc1cc(N2CCC(NCc3cccc(N4CCCC4)c3)CC2)nc(NCCO)n1` [KI-TM1-037, 2-((4-Methyl-6-(4-((3-(pyrrolidin-1-yl)benzyl)amino)piperidin-1-yl)pyrimidin-2-yl)amino)ethan-1-ol], the IC50 in the assay on Molt4-5×MRE-FLuc cells and with endogenous Myb protein was greater than 40 µM throughout.

`Nc1nc(Cl)cc(N2CCC(NCc3cccc(N4CCCC4)c3)CC2)n1` [KI-TM1-038, 4-Chloro-6-(4-((3-(pyrrolidin-1-yl)benzyl)amino)piperidin-1-yl)pyrimidin-2-amine]: the IC50 with Molt4-5×MRE-FLuc cells and in the assay with endogenous Myb protein was greater than 40 µM in each case.

`Cc1cc(N2CCC(NCc3cccc(N4CCN(C)CC4)c3)CC2)nc(N)n1` [KI-TM1-039, 4-Methyl-6-(4-((3-(4-methylpiperazin-1-yl)benzyl)amino)piperidin-1-yl)pyrimidin-2-amine]: the half-maximal inhibitory concentration (IC50) in the assay on Molt4-5×MRE-FLuc cells and with endogenous Myb protein was greater than 40 µM each time.

For the compound `Cc1cc(N2CCC(NCc3cccc(N4CCOCC4)c3)CC2)nc(N)n1` [KI-TM1-040, 4-Methyl-6-(4-((3-morpholinobenzyl)amino)piperidin-1-yl)pyrimidin-2-amine], the IC50 in the assay with Molt4-5×MRE-FLuc cells and in the assay with endogenous Myb protein was greater than 40 µM in each case.

`Cc1cc(N2CCC(NCc3cccc(N4CCCC4)c3)CC2)nc(NCCOCCOCCOCCN)n1` [KI-TM1-041, N-(2-(2-(2-(2-Aminoethoxy)ethoxy)ethoxy)ethyl)-4-methyl-6-(4-((3-(pyrrolidin-1-yl)benzyl)amino)piperidin-1-yl)pyrimidin-2-amine]: the half-maximal inhibitory concentration (IC50) with Molt4-5×MRE-FLuc cells and in the assay with endogenous Myb protein was greater than 40 µM in each case.

As to `Cc1cc(N2CCC(N(CCCCCCOCCOCCOCCCCCC(=O)Nc3cccc4c3C(=O)N(C3CCC(=O)NC3=O)C4=O)Cc3cccc(N4CCCC4)c3)CC2)nc(N)n1` (stereo not drawn) [KI-TM1-043, 2-(1-(2-amino-6-methylpyrimidin-4-yl)piperidin-4-yl)-N-(2-(2,6-dioxopiperidin-3-yl)-1,3-dioxoisoindolin-4-yl)-1-(3-(pyrrolidin-1-yl)phenyl)-9,12,15-trioxa-2-azahenicosan-21-amide], the IC50 in the assay on Molt4-5×MRE-FLuc cells and in the assay on endogenous Myb protein was greater than 40 µM each time.

Turning to `Cc1cc(N2CCC(N(CCCCCCOCCOCC(=O)Nc3cccc4c3C(=O)N(C3CCC(=O)NC3=O)C4=O)Cc3cccc(N4CCCC4)c3)CC2)nc(N)n1` (stereo not drawn) [KI-TM1-044, 2-(2-((6-((1-(2-Amino-6-methylpyrimidin-4-yl)piperidin-4-yl)(3-(pyrrolidin-1-yl)benzyl)amino)hexyl)oxy)ethoxy)-N-(2-(2,6-dioxopiperidin-3-yl)-1,3-dioxoisoindolin-4-yl)acetamide], the IC50 with Molt4-5×MRE-FLuc cells and in the assay with endogenous Myb protein was greater than 40 µM each time.
